In PMC5562523 (Cell chemical biology, 2017):
Entries after “also recorded” stand apart in the source; their conditions may differ.

Experiments:
S. aureus = type: cell-based; details: 10 – 80 μM, pH 7.0 and 5.7, 6 hours
Enterococcus faecalis = type: cell-based; details: neutral and acidic pH
Escherichia coli = type: cell-based; details: neutral and acidic pH
Mtb free thiol pools = test: Free thiol pools in Mtb; type: cell-based; details: for free thiol pools relative to DMSO/untreated control: pH 7.0 and 5.7, 24 hours, 2 or 20 μM AC2P36, 20 μM auranofin, INH
Mtb [1] = test: Bactericidal activity of AC2P36; type: cell-based, Mycobacterium tuberculosis strain CDC1551
S. aureus (ΔsodAΔsodM) = type: cell-based; details: pH 7.0 and 5.7
Staphylococcus aureus = type: cell-based; details: neutral and acidic pH
S. aureus free thiols = test: Free thiols in S. aureus; type: cell-based, Staphylococcus aureus strain Newman; details: 20 μM, pH 5.7
Mtb [2] = type: cell-based
[3] = system: Mtb reporter strain CDC1551::roGFP-R12; type: cell-based, Mycobacterium tuberculosis; details: pH 7.0 and 5.7, 0.1 – 20 μM, 6 h
Mtb [4] = test: Fractional killing and potentiation of antimicrobials; type: cell-based, Mycobacterium tuberculosis; details: pH 5.7, 3 days; for reduction in bacterial growth relative to the initial inoculum, compound alone: 10 μM AC2P36 alone or 10 μM INH alone
in vitro = type: cell-based; details: mouse
Proteus vulgaris = type: cell-based; details: neutral and acidic pH
Pseudomonas auruginosa = type: cell-based; details: neutral and acidic pH
Mtb [5] = test: Intracellular reactive oxygen species; type: cell-based, Mycobacterium tuberculosis
Mtb [6] = test: Menadione sensitivity assay; type: cell-based, Mycobacterium tuberculosis; details: pH 5.7, dose response of AC2P36 and menadione, six days, OD
Mtb cytoplasmic pH = test: Cytoplasmic pH measurement; type: cell-based; details: pH 5.7, over 24 hours
Mtb [7] = test: Protection from AC2P36 by ROS scavenging agents; type: cell-based, Mycobacterium tuberculosis; details: pH 5.7, dose response of scavenger, six days, OD

Compound: O[C@@H](CS)[C@@H](O)CS (racemic) [DTT, Dithiothreitol, reference compound]
- ROS accumulation in S. aureus (S. aureus): had no effect on ROS accumulation

Compound: COc1ccc(NC(=O)c2nc(S(C)(=O)=O)ncc2Cl)cc1Cl [AC2P36, 5-chloro-N-(3-chloro-4-methoxyphenyl)-2-methylsulfonylpyrimidine-4-carboxamide]
- susceptibility of E. faecalis to AC2P36 (Enterococcus faecalis): exhibit susceptibility to AC2P36
- susceptibility of E. coli to AC2P36 (Escherichia coli): relatively unaffected
- depletion of free thiols vs DMSO treated samples (Mtb free thiol pools; 20 μM AC2P36, pH 5.7, 24 hours): ~ 16 fold
- free thiol concentration after treatment (Mtb free thiol pools; 20 μM AC2P36, pH 5.7, 24 hours (DMSO ~1.3 μM)): ~ 80 nM
- reduction of free thiols (Mtb free thiol pools; 20 μM AC2P36, pH 7.0, 24 hours): reduced by one third
- free thiol pools relative to DMSO/untreated control (Mtb free thiol pools): significantly depleted thiol pools at both pH 7.0 and 5.7
- reduction of viability relative to the DMSO treated control (Mtb [1]; 20 μM AC2P36, pH 5.7, by 7 days): ~ 100 fold
- concentrations at which bactericidal activity is observed (Mtb [1]; pH 5.7, 6 days of treatment): > 10 µM
- enhanced sensitivity of S. aureus (ΔsodAΔsodM) to AC2P36 compared to WT (S. aureus (ΔsodAΔsodM)): ~ 2 fold
- susceptibility of S. aureus to AC2P36 (Staphylococcus aureus): exhibit susceptibility to AC2P36
- reduction in free thiols in S. aureus (S. aureus free thiols): ~ 30%
- ROS accumulation in S. aureus (S. aureus): enhanced ROS accumulation in a dose-dependent manner
- selectivity at acidic pH (pH 5.7 vs pH 7.0 EC50) (Mtb [2]): ~ 10 fold
- concentrations at which Mtb growth is slowed/inhibited at neutral pH (Mtb [2]; pH 7.0): > 30 μM
- cytoplasmic redox status (roGFP) [3]: leads to a reduced cytoplasm in a dose-dependent and pH-independent manner; also recorded: promotes a reduced cytoplasm in a dose-dependent and pH-independent manner
- synergy/potentiation in combination with rifampin (Mtb [4]; 10 μM AC2P36 + 0.3 μM rifampin): no significant synergy; also recorded: No potentiation was observed
- reduction in bacterial growth relative to the initial inoculum, compound alone (Mtb [4]): approximately 2 fold
- CC50 at 3 days (in vitro): 17 µM
- susceptibility of P. vulgaris to AC2P36 (Proteus vulgaris): relatively unaffected
- susceptibility of P. aeruginosa to AC2P36 (Pseudomonas auruginosa): relatively unaffected
- accumulation of intracellular ROS (Mtb [5]; 2 or 20 μM AC2P36, pH 7.0 and 5.7, 24 hours): dose-dependent and pH-dependent accumulation of reactive oxygen species; also recorded: significant induction of ROS
- synergy with menadione (Mtb [6]): did not synergize
- effect on Mtb cytoplasmic pH (Mtb cytoplasmic pH): does not modulate Mtb cytoplasmic pH

Compound: CC(C)/N=c1\cc2n(-c3ccc(Cl)cc3)c3ccccc3nc-2cc1Nc1ccc(Cl)cc1 [Clofazimine, clofazimine, reference compound]
- effect on Mtb growth, compound alone (Mtb [4]; 100 μM clofazimine alone): did not impact Mtb growth

Compound: NNC(=O)c1ccncc1 [INH, isoniazid, reference compound]
- free thiol pools relative to DMSO/untreated control (Mtb free thiol pools): comparable thiol concentrations as the untreated cultures
- reduction in bacterial growth relative to the initial inoculum, compound alone (Mtb [4]): approximately 2 fold

Compound: CC(=O)N[C@@H](CS)C(=O)O [NAC, N-acetylcysteine]
- protection of Mtb from 32 μM AC2P36 (Mtb [7]): protects Mtb from killing by 32 μM AC2P36 in a dose dependent manner

Compound: CC(=O)OC[C@H]1O[C@@H]([S-])[C@H](OC(C)=O)[C@@H](OC(C)=O)[C@@H]1OC(C)=O.CCP(CC)CC.[Au+] [auranofin, reference compound]
- free thiol pools relative to DMSO/untreated control (Mtb free thiol pools): depleted free thiols relative to the DMSO treated control
- reduction in free thiols in S. aureus (S. aureus free thiols): ~ 30%

Compound: CN(C)C(=O)/N=N/C(=O)N(C)C [diamide, reference compound]
- enhancement in bacterial growth relative to the initial inoculum, compound alone (Mtb [4]; 1 mM diamide alone): 1.8 fold
- accumulation of intracellular ROS (Mtb [5]; 20 μM diamide, neutral pH): resists diamide treatment
- accumulation of intracellular ROS (Mtb [5]; 20 μM diamide, pH 5.7): significant increase in ROS
